Format in all cases: cell-based, human
Data set [1] has as its system p53 and FoxO1. In words: Western blot of p53 and FoxO1 acetylation in HUVECs. As to conditions: ANM 10 μM + HG 30 mM. Here is the method: (§1) Please refer to FIG. 9A˜FIG. 9H, which are views showing HG-induced senescence prevented by ANM in human umbilical vein endothelial cells (HUVECs). As shown in the figures, to further delineate the protective effects of ANM on another cell system, experiments are designed to investigate the protective effect of ANM on HUVECs incubated in media containing either NG or HG alone or with ANM for 48 h. Cell viability is measured by MTT assay. […] Cell viability is determined by MTT assay. Percentage of viable cells are normalized with control cells (NG). […] In addition, in FIG. 9B, cellular senescence is determined by SA-β-gal activity assay. […] In addition, in FIG. 9C and FIG. 9D, total cell lysate is extracted and senescence-associated marker proteins including p16^INK4A, p21^CIP1 total and acetylated p53 and FoxO1 are measured by western blot analysis.
Cells are lysed by either RIPA lysis buffer or nuclear and cytoplasmic extraction reagents (Thermo Fisher Scientific). Protein concentrations are determined by Bio-Rad protein assay reagent (Bio-Rad Laboratories, Hercules, Calif.). […] The blots are detected using VL Chemi-Smart 3000 (Viogene Biotek, Sunnyvale, Calif.) with the enhanced chemiluminescence (ECL) western blotting reagent (Millipore, Billerica, Mass.).

The subject of data set [2] is HUVECs. In words: Intracellular ROS (DCFH-DA assay) in HUVECs. Conditions: ANM 10 μM + HG 30 mM, 48 h; HG alone 14.3-fold. The procedure:
The intracellular ROS level is quantified by utilizing DCFH-DA assay. […] However, treatment of HUVECs with ANM resulted reduced ROS levels (6.1-fold), compared with HUVECs in HG that are not treated with ANM. In addition, in FIG. 9G, western blot analysis is performed to determine the protein expression levels of HO-1 and NQO-1.

For data set [3], the system named is HUVECs. In words: MTT cell viability in HUVECs. Conditions: 48 h. The procedure: as §1
Cell viability is assessed by MTT colorimetric assay. Briefly, HNDFs (2×10^4cells/well) or HUVECs (5×10^4 cells/well) are seeded in a 24-well culture plate. […] The MTT formazan crystals are dissolved in 400 μL of DMSO and the samples are measured at 570 nm (A540) using an ELISA microplate reader (Bio-Tek Instruments, Winooski, Vt.). The percentage of cell viability (%) is calculated as (A570 of treated cells/A570 of untreated cells)×100.

Data set [4] relates to HNDFs. In words: Trypan blue exclusion cell proliferation assay in HNDFs. As to conditions: 72 h. Here is the method: To further clarify the effect of antcins, HG-induced reduction in cell proliferation is determined. In FIG. 2D, to determine the effect of antcins on cell proliferation efficacy, 5×10^4 cells/well of HNDFs are incubated with antcins in 6-well plates in the presence of HG (30 mM) for 72 h. Number of viable cells is quantified by the tryphan blue exclusion method. Results are expressed as mean±S.E.M of three indipendent expriments. Statistical significance is set at ^ϕP<0.05 as compared to NG vs. HG and *P<0.05 as compared to HG vs. samples. […] Therefore, the molecular mechanism underlying the protective effect of ANM is explored next.
Furthermore, in FIG. 3C, to determine the effect of ANM or NAC on cell proliferation, 5×10^4 cells/well of HNDFs are incubated in a 6-well plate with ANM (10 μM) or NAC (100 μM) in the presence of HG (30 mM) for 72 h. Number of viable cells is quantified by the tryphan blue exclusion method. Results expressed as mean±S.E.M of three independent experiments. Statistical significance is set at ^ϕP<0.05 as compared to NG vs. HG and *P<0.05 as compared to HG vs. samples.
Cell proliferation is evaluated using trypan blue exclusion assay as described previously with minor modification. Cells are plated into 6-well plates at a density of 5×10^4 cells/well. After incubation overnight, cells are treated with test samples in the presence or absence of HG for 24-72 h. Cells exposed to 0.2% Trypan blue are then counted in a hemocytometer, and cells stained with Trypan blue are excluded. Percentage of viable cells is calculated based on the ratio of viable cells to total cell population in each well. The proliferation rate is calculated based on the number of viable cells in HG or sample-treated groups versus the NG-treated group.

For data set [5], the system named is Nrf2. In words: ARE luciferase reporter assay in HUVECs. As to conditions: ANM 10 μM or RES 5 μM + HG 30 mM, 6 h; HG alone 0.5-fold, control 1-fold. The procedure:
Cell lysates are mixed with luciferase reagents and quantified using an illuminometer. Relative ARE promoter activity is calculated by dividing the relative luciferase unit (RLU) of treated cells by RLU of untreated cells (NG). Results are expressed as mean±SEM of three independent experiments. Statistical significance is set at ^ϕP<0.05 as compared to NG vs. HG and *P<0.05 as compared to HG vs. samples.
ARE promoter activity is measured using a dual-luciferase reporter assay system (Promega, Madison, Wis.). […] Cells are then transfected with ARE plasmid (Qiagen, Hilden, Germany) using Lipofectamine 2000 (Invitrogen) and incubated for 36 h. […] The cell lysate is prepared and incubated with luciferase agents and the relative luminescence intensity is quantified using a spectrophotometer (Hidex Oy, Turku, Finland).
(In general: A reporter such as luciferase makes a cellular process visible.)

SMILES strings stand for the structures. “Also recorded” adds a separate entry of the source.

For `C=C(CCC(C)C1CCC2C3=C(C(=O)C(O)C21C)C1(C)CCC(O)C(C)C1CC3)C(C)C(=O)O` (stereo not shown) [ANM, antcin M], in data set [1], the “HG-induced p53 and FoxO1 acetylation in HUVECs” value is given as “significantly blocks”. Also, the “intracellular ROS levels in HUVECs” value in data set [2] is 6.1 fold. In addition, in data set [3] (ANM 10 μM or RES 5 μM + HG 30 mM, HG alone 35.01%), the “number of viable HUVECs under HG” value is 79.78%. Also, in data set [3] (ANM 10 μM or RES 5 μM), the “cell viability of HUVECs, compound alone” value is recorded as “does not affect cell viability”. Further, in data set [4] (ANM 10 μM + HG), the “HG-induced reduction in cell number, control siRNA cells” value was “significantly blocked” and the “protection of cell number, SIRT-1 siRNA transfected cells” value is reported as “partial protection”. For the same compound, in data set [4] (ANM + HG), the “HG-induced reduction in cell proliferation, Nrf2 knock-down cells” value was “partially inhibited”; the “cell proliferation, Nrf2 and SIRT-1 knock-down cells” value is on record as “fails to rescue”. For the same compound, the “cell proliferation (number of viable cells) vs HG group” value in data set [4] (antcins 10 μM + HG 30 mM, trypan blue exclusion) is on record as “two-fold increase; also recorded: increased cell proliferation”. The “relative ARE luciferase activity in HUVECs co-incubated with HG” value in data set [5] came out at 4.8 fold.

Values taken from patent US20180318199A1, “Pharmaceutical Composition Having Anti-Aging Properties against High-Glucose” (TAIWAN LEADER BIOTECH CORP., priority 2017, published 2018).
